# In US6146628A, “Biotherapeutic agents comprising recombinant PAP and PAP mutants” (priority 1995, dated 2000):
# Read-outs that look alike come from different tables or passages of the source.
# Tests used:
# [1] = in vitro; assay type: cell-based; settings: cells exposed to zidovudine; 22 assays; 90.9% for cells not exposed; read-out: cell viability
# Source text: (§1) A total of 22 clinical HIV-1 isolates were studied, including 8 isolates from four seropositive asymptomatic individuals, 6 isolates from three patients with the AIDS-related complex, and 8 isolates from four patients with AIDS (two pairs of zidovudine-resistant and zidovudine-susceptible reference isolates were also included in this group). Erice et al., Antimicrob. Ag. Chemother., 37, 835 (1993). Fifteen isolates were from untreated individuals, and seven isolates were obtained after 24 to 104 weeks of treatment with zidovudine, alone or alternating with zalcitabine. […] The mean αCD4-PAP IC50 s in this group were 11×10^-3 nM (range, 2.5×10^-3 to 25×10^-3 nM) for isolates from zidovudine-untreated individuals and 9×10^-3 nM for the isolate obtained after 48 weeks of zidovudine therapy. […] The mean αCD4-PAP values in this group were 137×10^-3 nM (range, 39×10^-3 to 212×10^-3 nM) for isolates from untreated individuals and 19×10^-3 nM (range, 2×10^-3 to 42×10^-3 nM) for isolates from treated patients. […] The mean αCD4-PAP values were 43×10^-3 nM for the 17 isolates susceptible to zidovudine and 19×10^-3 nM for the 5 isolates that were resistant to zidovudine. All of the HIV-1 isolates studied had IC50 s greater than 0.5 nM for unconjugated PAP, the αCD19-PAP immunoconjugate, and monoclonal antibody αCD4. […]
# [2] = test system: clinical HIV-1 strains (AT-101, AT-328, AT-332); assay type: in vivo, Hu-PBL-SCID mice
# Source text: Hu-PBL-SCID mice were generated by reconstituting SCID mice by intraperitoneal injection of 10×10^6 peripheral blood mononuclear cells from a single EBV-seronegative volunteer donor. Two weeks after inoculation of cells, mice were challenged by intraperitoneal injection of 1.47.-7×10^4 median tissue culture infectious doses (TCID50) of cell free virus. Three different clinical HIV-1 strains (AT-101, AT-328, AT-332) were used. […] SCID mice were infected with HIV-1 isolates in a Biosafety Level 3 containment facility and all manipulations were performed in a biosafety cabinet. Non-toxic doses of anti-CD4-PAP (20% -50% of LD10) were administered intraperitoneally by injecting half of the total dose as a bolus and delivering the remainder i.p. over 2 weeks using Alzet micro-osmotic pumps. […] Two weeks after infection with HIV-1, mice were electively killed and fresh peritoneal lavage cells as well as spleen cells were isolated, cocultured with phytohemagglutinin(PHA)-stimulated human peripheral blood mononuclear cells from an HIV-1 antibody negative donor, and culture supernatants were tested every 3-4 days for a maximum of 28 days for the presence of HIV-1 antigen with a commercially available enzyme immunoassay (Abbott Laboratories, North Chicago, Ill.) that detects primarily the core p24 antigen of HIV-1, as previously described by Goudsmit et al. in J. Infectious Diseases, 155, 558 (1987). In addition to this culture method, we also isolated the DNA from the peritoneal lavage cells as well as splenocytes for detection of HIV-1 DNA by PCR amplification of a 115 b.p. sequence in the gag region of the HIV-1 genome using two 29-base oligonucleotide primers, SK38 and SK39, that flank the region to be amplified. […] DNA samples were also examined for the presence of human DNA by PCR amplification of a 110-bp fragment from the first exon of the human β-globin gene using two 20-base oligonucleotide primers, PCO3 and PCO4, that flank the region to be amplified, as previously described in detail by Chelstrom et al. Blood, 84, 20 (1994). […]
# [3] = test system: clinical HIV-1 isolates; test: In vitro susceptibility of clinical HIV-1 isolates to zidovudine (IC50); assay type: cell-based
# Source text: as §1, with “αCD4. In 18 αCD4-PAP experiments, cell viability ranged from 97.5% (for cells not exposed to the immunoconjugate)to 87.2% (for cells exposed to 5 nM αCD4-PAP). Cell viabilities in 22 zidovudine susceptible assays ranged from 90.9% (cells not exposed to zidovudine) to 90.75% (cells exposed to […] zidovudine).” for “αCD4.”
# The in vitro susceptibility of clinical HIV-1 isolates to the PAP, PAP mutants, and anti-CD4 PAP immunoconjugates will be measured and compared using an RT inhibition assay, as described by Schwartz et al., cited supra. In brief, 5×10^6 PHA-stimulated seronegative donor peripheral blood mononuclear cells will be infected with HIV-1 by incubation in 1 mL of a stock virus preparation for 3 h at 37° C./5% CO2. After infection, cells will be transferred to 96-well tissue culture plates (40 μL/well in triplicate wells) containing different concentrations of PAP or αCD4 PAP diluted in RPMI 1640 supplemented with 20% fetal calf serum, 5% interleukin 2 (Cellular Products), 160 U/mL penicillin, and 160 μg/mL streptomycin. αCD4 PAP treatment will continue for 5 days to mimic the FDA-approved clinical protocol of the ongoing phase II PAP immunoconjugate trials for treatment of B-lineage lymphoid malignancies (BB-IND #3864). At the end of the incubation period, culture supernatants will be removed and assayed for RT activity using the method of Schwartz and colleagues. Schwartz et al., cited supra. IC50 values (concentration of drug needed to reduce RT activity by 50%) will be calculated from the RT activities of untreated versus treated samples using the SAS Regression Analysis Program (SAS Institute, Cary, N.C.). ZDV resistance will be defined as an ZDV-IC50value of greater than 1 μM. Standard statistical methods will be used including Student's t-tests to compare the αCD4 PAP sensitivity of ZDV-resistant and ZDV-sensitive HIV-1 isolates. All computations will be performed using an updated statistics program for the Macintosh (Statworks Statistics Program, Cricket Software, Philadelphia, Pa.).
# [4] = ZDV in the water at 1 mg/mL, of the remaining 7 of 10 mice
structure (smiles),measurement,setting,value
"Cc1cn([C@H]2C[C@H](N=[N+]=[N-])[C@@H](CO)O2)c(=O)[nH]c1=O [zidovudine, 3'-azido-3'-deoxythymidine]",viability,[1],90.8%
same,HIV-1 negative mice,"[2]; ZDV in the water at 1 mg/mL (average 200 mg/kg/day), two weeks after infection, culture and PCR",3 of 10
same,mice culture-negative but PCR-positive,[2]; [4],3
same,mice culture-positive and PCR positive,[2]; [4],4
same,IC50,"[3]; Human immunodeficiency virus 1, one resistant isolate, IC50 could not be calculated",> 4000 nM
same,IC50,"[3]; Human immunodeficiency virus 1, read-out: mean IC50, overall, 5 isolates resistant to zidovudine",3720 nM
same,IC50,"[3]; Human immunodeficiency virus 1, read-out: mean IC50, overall, 17 isolates susceptible to zidovudine",117 nM
same,IC50,"[3]; Human immunodeficiency virus 1, read-out: mean zidovudine IC50, AIDS-related complex, four zidovudine susceptible isolates",106 nM
same,IC50,"[3]; Human immunodeficiency virus 1, read-out: mean zidovudine IC50, isolates from seropositive asymptomatic, zidovudine-untreated patients",150 nM
same,IC50,"[3]; Human immunodeficiency virus 1, read-out: mean zidovudine IC50, patients with AIDS, five zidovudine susceptible strains",105 nM
same,IC50,"[3]; Human immunodeficiency virus 1, read-out: mean zidovudine IC50, strains from zidovudine-treated patients (7 isolates, 24 to 104 weeks of treatment)",2500 nM
same,IC50,"[3]; Human immunodeficiency virus 1, read-out: mean zidovudine IC50, strains from zidovudine-untreated individuals (15 isolates)",126 nM
same,IC50,"[3]; Human immunodeficiency virus 1, read-out: zidovudine IC50, one isolate from a seropositive asymptomatic individual after 48 weeks of zidovudine therapy",14 nM
same,IC50,"[3]; Human immunodeficiency virus 1, read-out: zidovudine IC50 range, AIDS-related complex, four zidovudine susceptible isolates",24 to 150 nM
same,IC50,"[3]; Human immunodeficiency virus 1, read-out: zidovudine IC50 range, isolates from seropositive asymptomatic, zidovudine-untreated patients",1 to 607 nM
same,IC50,"[3]; Human immunodeficiency virus 1, read-out: zidovudine IC50 range, patients with AIDS, five zidovudine susceptible strains",44 to 166 nM
same,IC50,"[3]; Human immunodeficiency virus 1, read-out: zidovudine IC50 range, strains from zidovudine-treated patients (7 isolates)",14 to 6500 nM
same,IC50,"[3]; Human immunodeficiency virus 1, read-out: zidovudine IC50 range, strains from zidovudine-untreated individuals (15 isolates)",1 to 607 nM
same,IC50,"[3]; Human immunodeficiency virus 1, read-out: zidovudine IC50s, AIDS-related complex, two resistant isolates obtained after 52 weeks of therapy",1710 to 2140 nM
same,susceptibility to zidovudine,"[3]; patients with AIDS, three isolates after 24 to 104 weeks of zidovudine, alone or alternating with zalcitabine",highly resistant to zidovudine
